Test results: patent publication US9066518B2, “Heterocyclic compounds as pesticides” (Bayer CropScience AG, priority 2009, dated 2015)
Read-outs that look alike come from different tables or passages of the source.

Columns and labels:
[1] = logP determination (neutral / HCOOH); details: for chromatographic logP: HCOOH (formic acid)
[2] = tested on: green peach aphid (Myzus persicae); assay: Myzus test (spray treatment); format: in vivo; details: foliar, 144 h, read-out: activity (effect in %, aphids killed)
Experimental: Solvents: 78 parts by weight of acetone
• 1.5 parts by weight of dimethylformamide Emulsifier 0.5 part by weight of alkylaryl polyglycol ether
To produce a suitable preparation of active compound, 1 part by weight of active compound is mixed with the stated amounts of solvents and emulsifier, and the concentrate is diluted with emulsifier-containing water to the desired concentration. Discs of leaves of Chinese cabbage (Brassica pekinensis) which are infested by all stages of the green peach aphid (Myzus persicae) are sprayed with an active compound preparation of the desired concentration.
After 6 days, the effect in % is determined. 100% means that all aphids have been killed; 0% means that none of the aphids has been killed.

[3] = application rate 500 g/ha, after 6 days, Chinese cabbage leaf discs

chromatographic logP ([1]; logP (HCOOH), HCOOH) | Compound | pest or weed control at 500 g/ha [2, 3] [%] | other results
0.76 | CC(=O)c1cnn(-c2cccnc2)c1 [1-[1-(Pyridin-3-yl)-1H-pyrazol-4-yl]ethanone] |  | 
2.27 | FC(F)(F)c1ccn(-c2cnn(-c3cccnc3)c2)n1 [Example 3, 1′-Pyridin-3-yl-3-trifluoromethyl-1′H-[1,4′]bipyrazolyl] | 100 | 
2.51 | FC(F)(F)c1cccc(-c2cnn(-c3cccnc3)c2)n1 [Example 4, 2-[1-(Pyridin-3-yl)-1H-pyrazol-4-yl]-6-(trifluoromethyl)pyridine] | 100 | 
0.81 | c1ccc(-c2cnn(-c3cccnc3)c2)nc1 [Example 12] | 100 | 
1.59 | c1cncc(-n2cc(-c3cccc(C4OCCCO4)n3)cn2)c1 [Example 13] | 90 | 
2.13 | FC(F)(F)c1nccc(-c2cnn(-c3cccnc3)c2)n1 [Example 15] | 100 | 
1.24 | CN(C)C(=O)c1cccc(-c2cnn(-c3cccnc3)c2)n1 [Example 17] | 100 | 
1.23 | O=C(c1cccc(-c2cnn(-c3cccnc3)c2)n1)N1CCOCC1 [Example 18] | 100 | 
2.05 | Clc1cccc(-c2cnn(-c3cccnc3)c2)n1 [Example 20] |  | 
2.64 | Cc1cc(C)n(-c2cccc(-c3cnn(-c4cccnc4)c3)n2)n1 [Example 21] | 100 | 
2.18 | Brc1cccc(-c2cnn(-c3cccnc3)c2)n1 [Example 24] | 100 | 
2.87 | CC(C)(C)OC(=O)Nc1cccc(-c2cnn(-c3cccnc3)c2)n1 [Example 27] | 100 | 
2.46 | CC(F)(F)c1cccc(-c2cnn(-c3cccnc3)c2)n1 [Example 29] | 90 | 
2.23 | FC(F)(F)c1ccnc(-c2cnn(-c3cccnc3)c2)n1 [Example 35] | 80 | 
2.12 | COc1cccc(-c2cnn(-c3cccnc3)c2)n1 [Example 38] | 100 | 
0.39 | c1cncc(-c2cnn(-c3cccnc3)c2)c1 [Example 39] | 100 | 
2.04 | CC(F)(F)c1ccc(-c2cnn(-c3cccnc3)c2)nc1 [Example 40] | 90 | 
1.75 | COC(OC)c1cccc(-c2cnn(-c3cccnc3)c2)n1 [Example 45] | 100 | 
0.86 | c1cnc(-c2nccc(-c3cnn(-c4cccnc4)c3)n2)nc1 [Example 46] | 100 | 
1.52 | FC(F)CNc1cccc(-c2cnn(-c3cccnc3)c2)n1 [Example 48] | 100 | 
2.99 | FC(F)(F)c1cccc(-c2cnn(-c3cccnc3)c2)c1 [Example 52] |  | 
2.12 | COc1ccc(-c2cnn(-c3cccnc3)c2)cc1 [Example 53] |  | 
1.86 | O=C1CCCN1c1cccc(-c2cnn(-c3cccnc3)c2)n1 [Example 80] |  | 
1.59 | O=C1CCCCN1c1cccc(-c2cnn(-c3cccnc3)c2)n1 [Example 81] |  | 
2.44 | CC1(C)COC(c2cccc(-c3cnn(-c4cccnc4)c3)n2)OC1 [Example 104] |  | logP ([1]; logP (neutral), neutral): 2.55
0.89 | c1cncc(-n2cc(-c3ccncn3)cn2)c1 [Example 113] |  | 
0.86 | N=C(NO)c1cccc(-c2cnn(-c3cccnc3)c2)n1 [Example 114] |  | 

The remaining lines, values behind:

Compound | chromatographic logP ([1]; logP (HCOOH), HCOOH) | pest or weed control at 500 g/ha [2, 3] [%] | other results
COCC(=O)c1cccc(Br)n1 [1-(6-Bromopyridin-2-yl)-2-methoxyethanone] |  |  | logP ([1]; logP (neutral), neutral): 1.73
CC(=O)c1cccc(-c2cnn(-c3cccnc3)c2)n1 [1-[6-(1-Pyridin-3-yl-1H-pyrazol-4-yl)pyridin-2-yl]ethanone] |  |  | logP ([1]; logP (neutral), neutral): 1.94
c1cnc(-c2cc[nH]n2)nc1 [2-(1H-Pyrazol-3-yl)pyrimidine] | 0.1 |  | 
Brc1cccc(-c2ncccn2)n1 [2-(6-Bromopyridin-2-yl)pyrimidine] | 1.3 |  | 
NC(=S)c1cccc(-c2cnn(-c3cccnc3)c2)n1 [6-(1-Pyridin-3-yl-1H-pyrazol-4-yl)pyridine-2-carbothioamide] |  |  | logP ([1]; logP (neutral), neutral): 1.77
N=C(N)c1cccc(-c2cnn(-c3cccnc3)c2)n1 [6-(1-Pyridin-3-yl-1H-pyrazol-4-yl)pyridine-2-carboxamidine] |  |  | logP ([1]; logP (neutral), neutral): 1.99
CN(C)/C=C/C(=O)c1cnn(-c2cccnc2)c1 [(2E)-3-(Dimethylamino)-1-[1-(pyridin-3-yl)-1H-pyrazol-4-yl]prop-2-en-1-one] |  |  | logP ([1]; HCOOH, logP (HCOOH)): 0.93
c1cnc(-c2ccn(-c3cnn(-c4cccnc4)c3)n2)nc1 [Example 2, 1′-(Pyridin-3-yl)-3-(pyrimidin-2-yl)-1′H-1,4′-bipyrazole] |  | 100 | logP ([1]; HCOOH, logP (HCOOH)): 1.18
Cn1cnc(-c2cccc(-c3cnn(-c4cccnc4)c3)n2)n1 [Example 6, 2-(1-Methyl-1H-[1,2,4]triazol-3-yl)-6-(1-pyridin-3-yl-1H-pyrazol-4-yl)pyridine] |  | 100 | logP ([1]; logP (neutral), neutral): 1.29
FC(F)(F)c1ccnc(-n2ccc(-c3cnn(-c4cccnc4)c3)n2)n1 [Example 8, 1′-(Pyridin-3-yl)-1-[4-(trifluoromethyl)pyrimidin-2-yl]-1H,1′H-3,4′-bipyrazole] | 2.15 | 90 | 
FC(F)(F)C(F)(F)c1nccc(-c2cnn(-c3cccnc3)c2)n1 [Example 9, 2-(Pentafluoroethyl)-4-[1-(pyridin-3-yl)-1H-pyrazol-4-yl]pyrimidine] |  | 100 | logP ([1]; HCOOH, logP (HCOOH)): 2.7
CC1(c2cccc(-c3cnn(-c4cccnc4)c3)n2)OCCO1 [Example 10, 2-(2-Methyl-1,3-dioxolan-2-yl)-6-(1-pyridin-3-yl-1H-pyrazol-4-yl)pyridine] |  |  | logP ([1]; logP (neutral), neutral): 1.89; pest or weed control at 500 g/ha ([2]; in Brassica rapa): 100%
COCC(F)(F)c1cccc(-c2cnn(-c3cccnc3)c2)n1 [Example 11, 2-(1,1-Difluoro-2-methoxyethyl)-6-(1-pyridin-3-yl-1H-pyrazol-4-yl)pyridine] |  | 100 | logP ([1]; logP (neutral), neutral): 2.3
Fc1cncc(-n2cc(-c3cccc(-c4ncccn4)n3)cn2)c1 [Example 14] | 1.81 | 90 | 
c1cncc(-n2cc(-c3cccc(-n4cccn4)n3)cn2)c1 [Example 19] | 2.21 | 100 | 
c1ccc(-c2ccn(-c3cnn(-c4cccnc4)c3)n2)nc1 [Example 23] | 1.19 | 100 | 
FC(F)(F)COc1cccc(-c2cnn(-c3cccnc3)c2)n1 [Example 25] | 2.96 |  | pest or weed control at 100 g/ha ([2]; application rate 100 g/ha, after 6 days, Chinese cabbage leaf discs): 80%

Compound | chromatographic logP ([1]; logP (HCOOH), HCOOH) | pest or weed control at 500 g/ha [2, 3] [%] | other results
Cc1nn(-c2cccnc2)cc1-n1ccc(C(F)(F)F)n1 [Example 26] | 2.51 | 100 | 
COc1ccnc(-n2ccc(-c3cnn(-c4cccnc4)c3)n2)n1 [Example 28] | 1.71 | 100 | 
N#Cc1cccc(-c2cnn(-c3cccnc3)c2)n1 [Example 30, 6-(1-Pyridin-3-yl-1H-pyrazol-4-yl)pyridine-2-carbonitrile] |  |  | logP ([1]; logP (neutral), neutral): 1.79; logP (neutral) ([1]; neutral): 1.73; pest or weed control at 500 g/ha ([2]; in Brassica rapa): 100%
Fc1cnc(-n2ccc(-c3cnn(-c4cccnc4)c3)n2)nc1 [Example 31] | 1.52 | 100 | 
c1cnc(-n2ccc(-c3cnn(-c4cccnc4)c3)n2)nc1 [Example 33] | 1.33 | 100 | 
c1cncc(-n2cc(-c3cccc(C4OCCO4)n3)cn2)c1 [Example 36] | 1.5 | 100 | 
Ic1cncc(-n2cc(-c3cccc(-c4ncccn4)n3)cn2)c1 [Example 37] | 2.37 | 100 | 
FC(F)(F)c1cccc(-n2ccc(-c3cnn(-c4cccnc4)c3)n2)n1 [Example 41] | 3.18 |  | 
Clc1cccnc1-n1ccc(-c2cnn(-c3cccnc3)c2)n1 [Example 42] | 1.81 | 100 | 
FC(F)(F)c1ccc(-n2ccc(-c3cnn(-c4cccnc4)c3)n2)nc1 [Example 43] | 3.22 | 90 | 
COc1cc(OC)nc(-c2nccc(-c3cnn(-c4cccnc4)c3)n2)n1 [Example 44] | 1.56 | 100 | 
c1ccc(-c2csc(-c3cnn(-c4cccnc4)c3)n2)nc1 [Example 47] | 1.55 | 100 | 
Brc1cncc(-n2cc(-c3cccc(-c4ncccn4)n3)cn2)c1 [Example 111] | 2.17 |  | 
N=C(NO)c1cccc(-c2cnn(-c3cccnc3)c2)n1 [N-Hydroxy-6-(1-pyridin-3-yl-1H-pyrazol-4-ylpyridine-2-carboxamidine] |  |  | logP ([1]; logP (neutral), neutral): 1.23
CON(C)C(=O)c1cnn(-c2cccnc2)c1 [N-Methoxy-N-methyl-1-(pyridin-3-yl)-1H-pyrazole-4-carboxamide] |  |  | logP ([1]; HCOOH, logP (HCOOH)): 0.91
CC1(C)OB(c2cnn(-c3cncc(F)c3)c2)OC1(C)C [VI-2] | 2.88 |  | 
CC1(C)OB(c2cnn(-c3cncnc3)c2)OC1(C)C [VI-3] | 2.1 |  | 
